Measurements taken from US12077503B2, “Substituted cyclic amides and their use as herbicides” (FMC CORPORATION, priority 2015, dated 2024).

Tests used:
Type in all cases: in vivo
[1] = test system: barnyardgrass (Echinochloa crus-galli); experiment: Test G Pre-Emergence Protocol; conditions: Echinochloa crus-galli, pre-emergence, 312 h, evaluated after 13 days; for pest or weed control at 15.625 g/ha: 15.625 g ai/ha; for pest or weed control at 15.625 g/ha / pest or weed control at 250 g/ha: read-out: Barnyardgrass damage rating (100=total damage to plant; 0=no damage to plant); for pest or weed control at 62.5 g/ha: 62.5 g ai/ha, 100=total damage to plant, 0=no damage to plant, read-out: Barnyardgrass damage rating; for pest or weed control at 250 g/ha: 250 g ai/ha
Procedure, shortened: (§1)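 Pots of seeds in standard soil were grown for one day in a glasshouse (24/16 °C day/night, 14 h light, 65% humidity), then sprayed with compound in acetone/water 50:50 with 0.5% Tween 20 at 15.625, 62.5 or 250 g/ha. Damage was scored after 13 days on a 0 (none) to 100 (total) scale.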

corn (Zea mays) [2] = experiment: Test G Pre-Emergence Protocol; conditions: Zea mays, pre-emergence, 312 h, evaluated after 13 days; for plant injury at 15.625 g/ha: 15.625 g ai/ha; for plant injury at 15.625 g/ha / plant injury at 250 g/ha: read-out: Corn damage rating (100=total damage to plant; 0=no damage to plant); for plant injury at 62.5 g/ha: 62.5 g ai/ha, 100=total damage to plant, 0=no damage to plant, read-out: Corn damage rating; for plant injury at 250 g/ha: 250 g ai/ha
Procedure, shortened: as §1

[3] = test system: giant foxtail (Setaria faberi); experiment: Test G Pre-Emergence Protocol; conditions: Setaria faberi, pre-emergence, 312 h, evaluated after 13 days; for pest or weed control at 15.625 g/ha: 15.625 g ai/ha; for pest or weed control at 15.625 g/ha / pest or weed control at 250 g/ha: read-out: Foxtail, Giant damage rating (100=total damage to plant; 0=no damage to plant); for pest or weed control at 62.5 g/ha: 62.5 g ai/ha, 100=total damage to plant, 0=no damage to plant, read-out: Foxtail, Giant damage rating; for pest or weed control at 250 g/ha: 250 g ai/ha
Procedure, shortened: as §1

[4] = test system: ivy-leaved morning glory (Ipomoea hederacea); experiment: Test G Pre-Emergence Protocol; conditions: Ipomoea, pre-emergence, 312 h, evaluated after 13 days; for pest or weed control at 15.625 g/ha: 15.625 g ai/ha; for pest or weed control at 15.625 g/ha / pest or weed control at 250 g/ha: read-out: Morningglory, Ivy-leaved damage rating (100=total damage to plant; 0=no damage to plant); for pest or weed control at 62.5 g/ha: 62.5 g ai/ha, 100=total damage to plant, 0=no damage to plant, read-out: Morningglory, Ivy-leaved damage rating; for pest or weed control at 250 g/ha: 250 g ai/ha
Procedure, shortened: as §1

[5] = test system: redroot pigweed (Amaranthus retroflexus); experiment: Test G Pre-Emergence Protocol; conditions: Amaranthus retroflexus, pre-emergence, 312 h, evaluated after 13 days; for pest or weed control at 15.625 g/ha: 15.625 g ai/ha; for pest or weed control at 15.625 g/ha / pest or weed control at 250 g/ha: read-out: Pigweed, Redroot damage rating (100=total damage to plant; 0=no damage to plant); for pest or weed control at 62.5 g/ha: 62.5 g ai/ha, 100=total damage to plant, 0=no damage to plant, read-out: Pigweed, Redroot damage rating; for pest or weed control at 250 g/ha: 250 g ai/ha
Procedure, shortened: as §1

[6] = test system: velvetleaf (Abutilon theophrasti); experiment: Test G Pre-Emergence Protocol; conditions: Abutilon theophrasti, pre-emergence, 312 h, evaluated after 13 days; for pest or weed control at 15.625 g/ha: 15.625 g ai/ha; for pest or weed control at 15.625 g/ha / pest or weed control at 250 g/ha: read-out: Velvetleaf damage rating (100=total damage to plant; 0=no damage to plant); for pest or weed control at 62.5 g/ha: 62.5 g ai/ha, 100=total damage to plant, 0=no damage to plant, read-out: Velvetleaf damage rating; for pest or weed control at 250 g/ha: 250 g ai/ha
Procedure, shortened: as §1

[7] = test system: barnyardgrass (Echinochloa crus-galli); experiment: Test G Post-Emergence Protocol; conditions: Echinochloa crus-galli, post-emergence, 312 h, read-out: Barnyardgrass damage rating; for pest or weed control at 15.625 g/ha: 15.625 g ai/ha, evaluated after 13 days (100=total damage to plant; 0=no damage to plant); for pest or weed control at 62.5 g/ha: 62.5 g ai/ha; for pest or weed control at 62.5 g/ha / pest or weed control at 250 g/ha: evaluated after 13 days, 100=total damage to plant, 0=no damage to plant; for pest or weed control at 250 g/ha: 250 g ai/ha
Procedure, shortened: (§2)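 Post-emergence herbicidal damage, scored visually 0–100 at 13 days. Application at 15.625, 62.5 or 250 g/ha onto 8-day-old plants grown under glasshouse control.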

corn (Zea mays) [8] = experiment: Test G Post-Emergence Protocol; conditions: Zea mays, post-emergence, 312 h, read-out: Corn damage rating; for plant injury at 15.625 g/ha: 15.625 g ai/ha, evaluated after 13 days (100=total damage to plant; 0=no damage to plant); for plant injury at 62.5 g/ha: 62.5 g ai/ha; for plant injury at 62.5 g/ha / plant injury at 250 g/ha: evaluated after 13 days, 100=total damage to plant, 0=no damage to plant; for plant injury at 250 g/ha: 250 g ai/ha
Procedure, shortened: as §2

[9] = test system: giant foxtail (Setaria faberi); experiment: Test G Post-Emergence Protocol; conditions: Setaria faberi, post-emergence, 312 h, read-out: Foxtail, Giant damage rating; for pest or weed control at 15.625 g/ha: 15.625 g ai/ha, evaluated after 13 days (100=total damage to plant; 0=no damage to plant); for pest or weed control at 62.5 g/ha: 62.5 g ai/ha; for pest or weed control at 62.5 g/ha / pest or weed control at 250 g/ha: evaluated after 13 days, 100=total damage to plant, 0=no damage to plant; for pest or weed control at 250 g/ha: 250 g ai/ha
Procedure, shortened: as §2

[10] = test system: ivy-leaved morning glory (Ipomoea hederacea); experiment: Test G Post-Emergence Protocol; conditions: Ipomoea, post-emergence, 312 h, read-out: Morningglory, Ivy-leaved damage rating; for pest or weed control at 15.625 g/ha: 15.625 g ai/ha, evaluated after 13 days (100=total damage to plant; 0=no damage to plant); for pest or weed control at 62.5 g/ha: 62.5 g ai/ha; for pest or weed control at 62.5 g/ha / pest or weed control at 250 g/ha: evaluated after 13 days, 100=total damage to plant, 0=no damage to plant; for pest or weed control at 250 g/ha: 250 g ai/ha
Procedure, shortened: as §2

[11] = test system: redroot pigweed (Amaranthus retroflexus); experiment: Test G Post-Emergence Protocol; conditions: Amaranthus retroflexus, post-emergence, 312 h, read-out: Pigweed, Redroot damage rating; for pest or weed control at 15.625 g/ha: 15.625 g ai/ha, evaluated after 13 days (100=total damage to plant; 0=no damage to plant); for pest or weed control at 62.5 g/ha: 62.5 g ai/ha; for pest or weed control at 62.5 g/ha / pest or weed control at 250 g/ha: evaluated after 13 days, 100=total damage to plant, 0=no damage to plant; for pest or weed control at 250 g/ha: 250 g ai/ha
Procedure, shortened: as §2

[12] = test system: velvetleaf (Abutilon theophrasti); experiment: Test G Post-Emergence Protocol; conditions: Abutilon theophrasti, post-emergence, 312 h, read-out: Velvetleaf damage rating; for pest or weed control at 15.625 g/ha: 15.625 g ai/ha, evaluated after 13 days (100=total damage to plant; 0=no damage to plant); for pest or weed control at 62.5 g/ha: 62.5 g ai/ha; for pest or weed control at 62.5 g/ha / pest or weed control at 250 g/ha: evaluated after 13 days, 100=total damage to plant, 0=no damage to plant; for pest or weed control at 250 g/ha: 250 g ai/ha
Procedure, shortened: as §2

SMILES	pest or weed control at 15.625 g/ha [1] [%]	pest or weed control at 62.5 g/ha [1] [%]	pest or weed control at 250 g/ha [1] [%]	plant injury at 15.625 g/ha (corn (Zea mays) [2]) [%]	plant injury at 62.5 g/ha (corn (Zea mays) [2]) [%]	plant injury at 250 g/ha (corn (Zea mays) [2]) [%]	pest or weed control at 15.625 g/ha [3] [%]	pest or weed control at 62.5 g/ha [3] [%]	pest or weed control at 250 g/ha [3] [%]	pest or weed control at 15.625 g/ha [4] [%]	pest or weed control at 62.5 g/ha [4] [%]	pest or weed control at 15.625 g/ha [5] [%]	pest or weed control at 62.5 g/ha [5] [%]	pest or weed control at 250 g/ha [5] [%]	pest or weed control at 15.625 g/ha [6] [%]	pest or weed control at 62.5 g/ha [6] [%]	pest or weed control at 250 g/ha [6] [%]	pest or weed control at 15.625 g/ha [7] [%]	pest or weed control at 62.5 g/ha [7] [%]	pest or weed control at 250 g/ha [7] [%]	other results
CN1C[C@H](c2cccc(C(F)F)c2)[C@@H](C(=O)Nc2cnccc2C(F)(F)F)C1=O (racemic) [Compound 1742]	0	0	80	0	0	30	50	80	90	0	0	0	10	20	0	0	30	0	70	80	pest or weed control at 250 g/ha [4]: 10%; plant injury at 15.625 g/ha (corn (Zea mays) [8]): 0%; plant injury at 62.5 g/ha (corn (Zea mays) [8]): 0%; plant injury at 250 g/ha (corn (Zea mays) [8]): 70%; pest or weed control at 15.625 g/ha [9]: 70%; pest or weed control at 62.5 g/ha [9]: 80%; pest or weed control at 250 g/ha [9]: 80%; pest or weed control at 15.625 g/ha [10]: 0%; pest or weed control at 62.5 g/ha [10]: 0%; pest or weed control at 250 g/ha [10]: 40%; pest or weed control at 15.625 g/ha [11]: 0%; pest or weed control at 62.5 g/ha [11]: 20%; pest or weed control at 250 g/ha [11]: 30%; pest or weed control at 15.625 g/ha [12]: 0%; pest or weed control at 62.5 g/ha [12]: 10%; pest or weed control at 250 g/ha [12]: 20%
CN1C[C@H](c2ccc(C(F)(F)F)cc2)[C@@H](C(=O)Nc2cnccc2F)C1=O (racemic) [Compound 1744]	0	0	0	0	0	0	0	10	50	0	0	0	10	10	0	0	0	0	10	70	plant injury at 15.625 g/ha (corn (Zea mays) [8]): 0%; plant injury at 62.5 g/ha (corn (Zea mays) [8]): 0%; plant injury at 250 g/ha (corn (Zea mays) [8]): 10%; pest or weed control at 15.625 g/ha [9]: 0%; pest or weed control at 62.5 g/ha [9]: 20%; pest or weed control at 250 g/ha [9]: 60%; pest or weed control at 15.625 g/ha [10]: 0%; pest or weed control at 62.5 g/ha [10]: 0%; pest or weed control at 250 g/ha [10]: 40%; pest or weed control at 15.625 g/ha [11]: 0%; pest or weed control at 62.5 g/ha [11]: 10%; pest or weed control at 250 g/ha [11]: 30%; pest or weed control at 15.625 g/ha [12]: 0%; pest or weed control at 62.5 g/ha [12]: 0%; pest or weed control at 250 g/ha [12]: 10%
CCOc1cc([C@@H]2CN(C)C(=O)[C@H]2C(=O)Nc2cccc(F)c2F)cc(C(F)(F)F)n1 (racemic) [Compound 1753]	30	70	80	0	0	60	70	80	90	0	0	0	0	60	0	0	0	40	70	70	pest or weed control at 250 g/ha [4]: 80%; plant injury at 15.625 g/ha (corn (Zea mays) [8]): 60%; plant injury at 62.5 g/ha (corn (Zea mays) [8]): 60%; plant injury at 250 g/ha (corn (Zea mays) [8]): 80%; pest or weed control at 15.625 g/ha [9]: 60%; pest or weed control at 62.5 g/ha [9]: 60%; pest or weed control at 250 g/ha [9]: 70%; pest or weed control at 15.625 g/ha [10]: 20%; pest or weed control at 62.5 g/ha [10]: 50%; pest or weed control at 250 g/ha [10]: 60%; pest or weed control at 15.625 g/ha [11]: 0%; pest or weed control at 62.5 g/ha [11]: 20%; pest or weed control at 250 g/ha [11]: 30%; pest or weed control at 15.625 g/ha [12]: 10%; pest or weed control at 62.5 g/ha [12]: 20%; pest or weed control at 250 g/ha [12]: 30%
